This note sets out measurements from ChEMBL document CHEMBL1152257, “New diterpenoids and the bioactivity of Erythrophleum fordii” (Bioorg Med Chem, 2008).

A value given as a limit tells only on which side of the number the result lay.

One assay concerns BV-2. Put plainly: Inhibition of NADPH oxidase in LPS-induced mouse BV2 cells assessed as NOX-dependent ROS production at 50 uM. It is filed as cell-based.
Assay [1] concerns the target T1, Nitric oxide synthase, inducible (Mus musculus, UniProt P29477).
T1 sequence (P29477 whole entry): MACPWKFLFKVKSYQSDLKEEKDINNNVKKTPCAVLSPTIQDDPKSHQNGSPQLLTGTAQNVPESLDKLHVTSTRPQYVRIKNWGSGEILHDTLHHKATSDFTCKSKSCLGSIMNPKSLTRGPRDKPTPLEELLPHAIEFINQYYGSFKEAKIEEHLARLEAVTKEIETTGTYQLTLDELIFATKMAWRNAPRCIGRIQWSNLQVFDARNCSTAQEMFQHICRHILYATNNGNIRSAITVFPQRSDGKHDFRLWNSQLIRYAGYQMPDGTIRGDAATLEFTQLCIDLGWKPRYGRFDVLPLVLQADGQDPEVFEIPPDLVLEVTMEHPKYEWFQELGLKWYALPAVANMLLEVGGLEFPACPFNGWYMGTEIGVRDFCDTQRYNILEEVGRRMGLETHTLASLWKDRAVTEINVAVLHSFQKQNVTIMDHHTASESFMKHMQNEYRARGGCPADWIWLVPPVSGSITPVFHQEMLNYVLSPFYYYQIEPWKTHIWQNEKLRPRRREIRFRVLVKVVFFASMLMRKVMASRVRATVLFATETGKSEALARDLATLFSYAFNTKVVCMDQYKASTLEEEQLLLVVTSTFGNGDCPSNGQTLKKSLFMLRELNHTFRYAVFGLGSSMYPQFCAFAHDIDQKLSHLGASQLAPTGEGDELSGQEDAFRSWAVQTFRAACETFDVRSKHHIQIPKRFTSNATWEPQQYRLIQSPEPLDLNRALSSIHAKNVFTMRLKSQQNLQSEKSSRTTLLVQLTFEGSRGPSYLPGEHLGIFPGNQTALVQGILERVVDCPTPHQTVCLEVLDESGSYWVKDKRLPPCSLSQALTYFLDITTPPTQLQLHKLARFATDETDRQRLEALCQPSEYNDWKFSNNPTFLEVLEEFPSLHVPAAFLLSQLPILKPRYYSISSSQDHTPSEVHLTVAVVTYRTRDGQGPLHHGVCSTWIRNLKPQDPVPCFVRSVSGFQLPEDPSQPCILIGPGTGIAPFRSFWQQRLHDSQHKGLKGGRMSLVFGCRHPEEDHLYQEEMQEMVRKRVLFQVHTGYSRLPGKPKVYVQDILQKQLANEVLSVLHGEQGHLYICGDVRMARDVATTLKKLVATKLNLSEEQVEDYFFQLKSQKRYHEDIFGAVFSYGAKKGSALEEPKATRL
Put plainly: Inhibition of iNOS-mediated NO production in LPS-induced mouse BV2 cells. The assay is classed as cell-based, BV-2.

Assay [2] has as its system Radical scavenging activity. Nature of the assay: Antioxidant activity assessed as DPPH radical scavenging activity at 50 uM. It is filed as functional. A general note: The DPPH test is a chemical assay of radical scavenging.

On to `CC[C@H](CC[C@@H](C)[C@H]1CC[C@H]2[C@@H]3[C@@H](O)C=C4C[C@@H](O)CC[C@]4(C)[C@H]3CC[C@]12C)C(C)C`, for which the inhibition (commonly the drop in the measured response relative to a control, in per cent) with BV-2 was 17.1%. For the same molecule, in assay [1], the IC50 – broadly, the concentration needed to halve the response being measured – was greater than 50 µM.

Turning to `CC1(C)CC[C@]2(C)CC[C@]3(C)C(=CC[C@@H]4[C@@]5(C)CCC(=O)C(C)(C)[C@@H]5CC[C@]43C)[C@@H]2C1`, the inhibition in the assay on BV-2 turned out to be 0%. In assay [1], this molecule returned a half-inhibitory concentration (IC50) greater than 50 µM.

On to `CC[C@H](CC[C@@H](C)[C@H]1CC[C@H]2[C@@H]3C[C@@H](O)C4=C[C@@H](O)CC[C@]4(C)[C@H]3CC[C@]12C)C(C)C`, for which the inhibition with BV-2 was determined as 1.6%. Further, in assay [1], the IC50 is greater than 50 µM. `CC[C@H](/C=C/[C@@H](C)[C@H]1CC[C@H]2C3=CC[C@H]4C[C@@H](O)CC[C@]4(C)[C@H]3CC[C@]12C)C(C)C`: the inhibition in the assay on BV-2 was 8.7%. This molecule gave an IC50 in assay [1] greater than 50 µM.

On to `C[C@@H](O)/C=C/[C@@]1(O)C(C)(C)C[C@H](O)C[C@@]1(C)O`, for which the inhibition in the assay on BV-2 turned out to be 25.2%. Also, in assay [1], the half-inhibitory concentration (IC50) is greater than 50 µM.

Regarding `C[C@@H]1O[C@@H](Oc2c(-c3ccc(O)cc3)oc3cc(O)cc(O)c3c2=O)[C@H](O)[C@H](O)[C@H]1O`, in the assay with BV-2, the inhibition stood at 6%.

As to `Cc1c(C)c2c(c(C)c1O)CCC(C)(C(=O)O)O2` (stereo unspecified), the Activity in assay [2] was 85.7%. `c1ccc2c(c1)[I+]c1ccccc1-2`: the inhibition with BV-2 came out at 85.1%. `C=CC(C)(C)c1[nH]c2c(CC=C(C)C)cc(CC=C(C)C)cc2c1C[C@@H]1NC(=O)[C@H](C)NC1=O` [ECHINULIN]: the inhibition in the assay with BV-2 was found to be 8.8%. Besides, the IC50 in assay [1] was greater than 50 µM.

Turning to `C[C@H]1C(=O)CC[C@@H]2[C@]1(C)CC[C@H]1[C@@]2(C)CC[C@@]2(C)[C@@H]3CC(C)(C)CC[C@]3(C)CC[C@]12C` [FRIEDELINE], the inhibition in the assay with BV-2 stood at 4.2%. The IC50 in assay [1] is greater than 50 µM. Consider `O=C(O)c1cc(O)c(O)c(O)c1` [GALLIC ACID], for which, in assay [2], the Activity is 85.6%. Further, the inhibition with BV-2 is 21.5%. This molecule returned an IC50 in assay [1] greater than 50 µM. For the molecule `CC(=O)O[C@H]1CC[C@@H]2C(=CC[C@H]3[C@@]2(C)CC[C@@]2(C)[C@@H]4CC(C)(C)CC[C@]4(C)CC[C@]32C)C1(C)C` [GLUTINOL ACETATE], the inhibition in the assay on BV-2 came to 10.8%. The IC50 in assay [1] is greater than 50 µM. In the case of `CC1(C)CC[C@]2(C)CC[C@]3(C)[C@H]4CC=C5[C@@H](CC[C@H](O)C5(C)C)[C@]4(C)CC[C@@]3(C)[C@@H]2C1` [GLUTINOL], the inhibition in the assay with BV-2 stood at 19.2%. Besides, in assay [1], the concentration for half-maximal inhibition (IC50) is greater than 50 µM. `CC1(C)CC[C@]2(C)CC[C@]3(C)[C@H]4CC=C5[C@@H](CCC(=O)C5(C)C)[C@]4(C)CC[C@@]3(C)[C@@H]2C1` [GLUTINONE]: the inhibition in the assay on BV-2 was 6.6%. This molecule had an IC50 in assay [1] greater than 50 µM.

On to `CO[C@H]1[C@H](O)[C@@H](O)[C@@H](O)[C@H](O)[C@@H]1O` [METHYLINOSITOL], for which the inhibition in the assay with BV-2 was determined as 16.5%. Moreover, the IC50 in assay [1] is greater than 50 µM. For `C[C@@H]1[C@@H](O)CC[C@]2(C)[C@H]3CC/C(=C\C(=O)O)[C@H](C)[C@@H]3[C@@H](O)C(=O)[C@@H]12` [NORERYTHROFORDIN A] the same measures were 8.6% and greater than 50 µM. With `CC1(C)CC[C@]2(C)CC=C3[C@]4(C)CC[C@H]5C(C)(C)[C@@H](O)CC[C@]5(C)[C@H]4CC[C@@]3(C)[C@@H]2C1` [TARAXEROL], the inhibition with BV-2 worked out at 11.6%. In assay [1], this molecule had a 50% inhibitory concentration (IC50) of 24.2 µM. `CC1(C)CC[C@]2(C)CC=C3[C@]4(C)CC[C@H]5C(C)(C)C(=O)CC[C@]5(C)[C@H]4CC[C@@]3(C)[C@@H]2C1` [TARAXERONE]: in the assay with BV-2, the inhibition is 5.2%. In assay [1], this molecule showed a half-inhibitory concentration (IC50) of 46.5 µM.

Turning to `CC(=O)O[C@H]1CC[C@]2(C)[C@H]3CC=C4[C@@H]5CC(C)(C)CC[C@]5(C)CC[C@@]4(C)[C@]3(C)CC[C@H]2C1(C)C` [beta-AMYRIN ACETATE], the inhibition with BV-2 was 9.2%. Further, in assay [1], the IC50 is greater than 50 µM.
